Results taken from US20230085307A1, “PYRIDAZINONE COMPOUND AND HERBICIDE” (NISSAN CHEMICAL CORPORATION, priority 2019, published 2023).

How the values were obtained:
redroot pigweed = assay: Test Example 4: herbicidal effect by soil treatment (Table 19, symbol N); type: in vivo, redroot pigweed (Amaranthus retroflexus)
In short: (§1)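 Soil-surface application: an emulsion agent diluted with water to the predetermined dose is sprayed uniformly over seeds lying under roughly 1.5 cm of sterilized diluvial soil. Boxes stay in a greenhouse at 25° C. to 30° C. Three weeks later, each species is graded on previously defined criteria.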

velvetleaf [1] = assay: Test Example 5: herbicidal effect by foliage application, plastic box (Table 20, symbol M); type: in vivo, velvetleaf (Abutilon theophrasti); settings: foliage application, 320 g/ha
In short: (§2)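 Sow seeds spot-wise in sterilized diluvial soil; cover with ~1.5 cm soil. Grow 14 days in greenhouse, 25° C. to 30° C. Spray foliage with emulsion diluted to predetermined amount. Rate effect after 3 weeks.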

Chinese sprangletop = assay: Test Example 3: herbicidal effect by foliage application, Wagner pot (Table 18, symbol D); type: in vivo, chinese sprangletop (Leptochloa chinensis)
In short: (§3)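 Plants were sown in alluvial soil held under 0.1–0.5 cm standing water and grown 14 days in a greenhouse at 25–30 °C. An emulsifiable formulation, water-diluted to the set dose, was then sprayed onto the foliage, and effects were scored three weeks later using previously defined criteria.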

persian speedwell [2] = assay: Test Example 4: herbicidal effect by soil treatment (Table 19, symbol R); type: in vivo, Persian speedwell (Veronica persica)
In short: as §1

oval-leafed pondweed = assay: Test Example 1: herbicidal activity, application before weed generation under submerged conditions (Table 16, symbol C); type: in vivo, oval-leafed pondweed (Monochoria vaginalis); settings: 320 g/ha applied herbicide
In short: (§4)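 Alluvial soil was flooded to 4 cm depth, weed seeds were sown mixed and 2.5-leaf rice seedlings were transplanted. On sowing day, the compound's emulsion, diluted in water to a set dose, was applied to the water surface. Plants grew at 25–30 °C and were scored 0–5 after three weeks.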

blackgrass [3] = assay: Test Example 5: herbicidal effect by foliage application, plastic box (Table 20, symbol J); type: in vivo, blackgrass (Alopecurus myosuroides); settings: foliage application, 320 g/ha
In short: as §2

rice flat sedge = assay: Test Example 3: herbicidal effect by foliage application, Wagner pot (Table 18, symbol E); type: in vivo, rice flat sedge (Cyperus iria)
In short: as §3

persian speedwell [4] = assay: Test Example 5: herbicidal effect by foliage application, plastic box (Table 20, symbol R); type: in vivo, Persian speedwell (Veronica persica); settings: foliage application, 320 g/ha
In short: as §2

barnyard grass [5] = assay: Test Example 3: herbicidal effect by foliage application, Wagner pot (Table 18, symbol H); type: in vivo, barnyard grass (Echinochloa crus-galli)
In short: as §3

lambsquarters [6] = assay: Test Example 4: herbicidal effect by soil treatment (Table 19, symbol O); type: in vivo, lambsquarters (Chenopodium album)
In short: as §1

wild oat [7] = assay: Test Example 4: herbicidal effect by soil treatment (Table 19, symbol I); type: in vivo, wild oat (Avena fatua)
In short: as §1

barnyard grass [8] = assay: Test Example 5: herbicidal effect by foliage application, plastic box (Table 20, symbol H); type: in vivo, barnyard grass (Echinochloa crus-galli); settings: foliage application, 320 g/ha
In short: as §2

late watergrass = assay: Test Example 1: herbicidal activity, application before weed generation under submerged conditions (Table 16, symbol A); type: in vivo, late watergrass (Echinochloa oryzicola); settings: 320 g/ha applied herbicide
In short: as §4

lambsquarters [9] = assay: Test Example 5: herbicidal effect by foliage application, plastic box (Table 20, symbol O); type: in vivo, lambsquarters (Chenopodium album); settings: foliage application, 320 g/ha
In short: as §2

windgrass [10] = assay: Test Example 4: herbicidal effect by soil treatment (Table 19, symbol L); type: in vivo, windgrass (Apera spica-venti)
In short: as §1

Italian ryegrass [11] = assay: Test Example 4: herbicidal effect by soil treatment (Table 19, symbol K); type: in vivo, Italian ryegrass (Lolium multiflorum)
In short: as §1

southern crabgrass [12] = assay: Test Example 4: herbicidal effect by soil treatment (Table 19, symbol F); type: in vivo, southern crabgrass (Digitaria ciliaris)
In short: as §1

green foxtail [13] = assay: Test Example 4: herbicidal effect by soil treatment (Table 19, symbol G); type: in vivo, green foxtail (Setaria viridis)
In short: as §1

windgrass [14] = assay: Test Example 5: herbicidal effect by foliage application, plastic box (Table 20, symbol L); type: in vivo, windgrass (Apera spica-venti); settings: foliage application, 320 g/ha, 3 weeks after application
In short: as §2

Japanese bulrush = assay: Test Example 1: herbicidal activity, application before weed generation under submerged conditions (Table 16, symbol B); type: in vivo, Japanese bulrush (Schoenoplectus juncoides); settings: 320 g/ha applied herbicide
In short: as §4

false cleavers [15] = assay: Test Example 4: herbicidal effect by soil treatment (Table 19, symbol Q); type: in vivo, false cleavers (Galium spurium)
In short: as §1

chickweed [16] = assay: Test Example 4: herbicidal effect by soil treatment (Table 19, symbol P); type: in vivo, common chickweed (Stellaria media)
In short: as §1

southern crabgrass [17] = assay: Test Example 5: herbicidal effect by foliage application, plastic box (Table 20, symbol F); type: in vivo, southern crabgrass (Digitaria ciliaris); settings: foliage application, 320 g/ha
In short: as §2

Italian ryegrass [18] = assay: Test Example 5: herbicidal effect by foliage application, plastic box (Table 20, symbol K); type: in vivo, Italian ryegrass (Lolium multiflorum); settings: foliage application, 320 g/ha
In short: as §2

blackgrass [19] = assay: Test Example 4: herbicidal effect by soil treatment (Table 19, symbol J); type: in vivo, blackgrass (Alopecurus myosuroides)
In short: as §1

wild oat [20] = assay: Test Example 5: herbicidal effect by foliage application, plastic box (Table 20, symbol I); type: in vivo, wild oat (Avena fatua); settings: foliage application, 320 g/ha
In short: as §2

false cleavers [21] = assay: Test Example 5: herbicidal effect by foliage application, plastic box (Table 20, symbol Q); type: in vivo, false cleavers (Galium spurium); settings: foliage application, 320 g/ha
In short: as §2

barnyard grass [22] = assay: Test Example 4: herbicidal effect by soil treatment (Table 19, symbol H); type: in vivo, barnyard grass (Echinochloa crus-galli)
In short: as §1

green foxtail [23] = assay: Test Example 5: herbicidal effect by foliage application, plastic box (Table 20, symbol G); type: in vivo, green foxtail (Setaria viridis); settings: foliage application, 320 g/ha
In short: as §2

velvetleaf [24] = assay: Test Example 4: herbicidal effect by soil treatment (Table 19, symbol M); type: in vivo, velvetleaf (Abutilon theophrasti)
In short: as §1

chickweed [25] = assay: Test Example 5: herbicidal effect by foliage application, plastic box (Table 20, symbol P); type: in vivo, common chickweed (Stellaria media); settings: foliage application, 320 g/ha, evaluated three weeks after application
In short: as §2

[26] = amount of applied herbicide 320 g/ha
[27] = evaluated three weeks after application

## COc1nn(C)c(=O)c(-c2c(-c3ccc4c(c3)OCCO4)sc3ccccc23)c1O [1-198]
Redroot pigweed; AAH 320 g/ha
  N: redroot pigweed, herbicidal effect rating: 0 (Herbicidal rate of 5% or less (almost no effect))
Velvetleaf [1]; 3 weeks after application
  effect on velvetleaf (M): 4 (Herbicidal rate of 70% or more and less than 90%)
Chinese sprangletop; 320 g/ha
  herbicidal effect on D (Chinese sprangletop), rating 0-5: 3 (Herbicidal rate of 40% or more and less than 70%)
Persian speedwell [2]; AAH 320 g/ha
  R: persian speedwell, herbicidal effect rating: 5 (Herbicidal rate of 90% or more (almost completely withered))
oval-leafed pondweed
  Herbicidal effect on C: oval-leafed pondweed (grade 0-5): 0 (Herbicidal rate of 5% or less (almost no effect))
Blackgrass [3]; 3 weeks after application
  effect on blackgrass (J): 0 (Herbicidal rate of 5% or less (almost no effect))
Rice flat sedge; 320 g/ha
  herbicidal effect on E (rice flat sedge), rating 0-5: 5 (Herbicidal rate of 90% or more (almost completely withered))
Persian speedwell [4]; 3 weeks after application
  effect on persian speedwell (R): 5 (Herbicidal rate of 90% or more (almost completely withered))
Barnyard grass [5]; 320 g/ha
  herbicidal effect on H (barnyard grass), rating 0-5: 5 (Herbicidal rate of 90% or more (almost completely withered))
Lambsquarters [6]; AAH 320 g/ha
  O: lambsquarters, herbicidal effect rating: 0 (Herbicidal rate of 5% or less (almost no effect))
Wild oat [7]; AAH 320 g/ha
  I: wild oat, herbicidal effect rating: 0 (Herbicidal rate of 5% or less (almost no effect))
Barnyard grass [8]; 3 weeks after application
  effect on barnyard grass (H): 2 (Herbicidal rate of 20% or more and less than 40%)
Late watergrass
  Herbicidal effect on A: late watergrass (grade 0-5): 3 (Herbicidal rate of 40% or more and less than 70%)
Lambsquarters [9]; 3 weeks after application
  effect on lambsquarters (O): 2 (Herbicidal rate of 20% or more and less than 40%)
Windgrass [10]; AAH 320 g/ha
  L: windgrass, herbicidal effect rating: 0 (Herbicidal rate of 5% or less (almost no effect))
Italian ryegrass [11]; AAH 320 g/ha
  K: Italian ryegrass, herbicidal effect rating: 0 (Herbicidal rate of 5% or less (almost no effect))
Southern crabgrass [12]; AAH 320 g/ha
  F: southern crabgrass, herbicidal effect rating: 0 (Herbicidal rate of 5% or less (almost no effect))
Green foxtail [13]; AAH 320 g/ha
  G: green foxtail, herbicidal effect rating: 5 (Herbicidal rate of 90% or more (almost completely withered))
Windgrass [14]
  effect on windgrass (L): 0 (Herbicidal rate of 5% or less (almost no effect))
Japanese bulrush
  Herbicidal effect on B: Japanese bulrush (grade 0-5): 0 (Herbicidal rate of 5% or less (almost no effect))
False cleavers [15]; AAH 320 g/ha
  Q: false cleavers, herbicidal effect rating: 1 (Herbicidal rate of 5% or more and less than 20%)
Chickweed [16]; AAH 320 g/ha
  P: chickweed, herbicidal effect rating: 5 (Herbicidal rate of 90% or more (almost completely withered))
Southern crabgrass [17]; 3 weeks after application
  effect on southern crabgrass (F): 4 (Herbicidal rate of 70% or more and less than 90%)
Italian ryegrass [18]; 3 weeks after application
  effect on Italian ryegrass (K): 4 (Herbicidal rate of 70% or more and less than 90%)
Blackgrass [19]; AAH 320 g/ha
  J: blackgrass, herbicidal effect rating: 0 (Herbicidal rate of 5% or less (almost no effect))
Wild oat [20]; 3 weeks after application
  effect on wild oat (I): 0 (Herbicidal rate of 5% or less (almost no effect))
False cleavers [21]; 3 weeks after application
  effect on false cleavers (Q): 1 (Herbicidal rate of 5% or more and less than 20%)
Barnyard grass [22]; AAH 320 g/ha
  H: barnyard grass, herbicidal effect rating: 2 (Herbicidal rate of 20% or more and less than 40%)
Green foxtail [23]; 3 weeks after application
  effect on green foxtail (G): 4 (Herbicidal rate of 70% or more and less than 90%)
Velvetleaf [24]; AAH 320 g/ha
  M: velvetleaf, herbicidal effect rating: 5 (Herbicidal rate of 90% or more (almost completely withered))

## CCCC(=O)Oc1c(C)nn(C)c(=O)c1-c1c(-c2ccc(F)cc2OC)sc2ccc(C)cc12 [2-149]
Redroot pigweed; [26]
  N: redroot pigweed, herbicidal effect rating: 5 (Herbicidal rate of 90% or more (almost completely withered))
Velvetleaf [1]; [27]
  herbicidal effect on M: velvetleaf (criteria 0-5): 1 (Herbicidal rate of 5% or more and less than 20%)
Chinese sprangletop; [26]
  herbicidal effect on D: Chinese sprangletop: 0 (Herbicidal rate of 5% or less (almost no effect))
Persian speedwell [2]; [26]
  R: persian speedwell, herbicidal effect rating: 3 (Herbicidal rate of 40% or more and less than 70%)
oval-leafed pondweed
  Herbicidal effect on C: oval-leafed pondweed (grade 0-5): 0 (Herbicidal rate of 5% or less (almost no effect))
Blackgrass [3]; [27]
  herbicidal effect on J: blackgrass (criteria 0-5): 2 (Herbicidal rate of 20% or more and less than 40%)
Rice flat sedge; [26]
  herbicidal effect on E: rice flat sedge: 3 (Herbicidal rate of 40% or more and less than 70%)
Persian speedwell [4]; [27]
  herbicidal effect on R: persian speedwell (criteria 0-5): 3 (Herbicidal rate of 40% or more and less than 70%)
Barnyard grass [5]; [26]
  herbicidal effect on H: barnyard grass: 5 (Herbicidal rate of 90% or more (almost completely withered))
Lambsquarters [6]; [26]
  O: lambsquarters, herbicidal effect rating: 4 (Herbicidal rate of 70% or more and less than 90%)
Chickweed [25]
  herbicidal effect on P: chickweed (criteria 0-5): 5 (Herbicidal rate of 90% or more (almost completely withered))
Wild oat [7]; [26]
  I: wild oat, herbicidal effect rating: 0 (Herbicidal rate of 5% or less (almost no effect))
Barnyard grass [8]; [27]
  herbicidal effect on H: barnyard grass (criteria 0-5): 3 (Herbicidal rate of 40% or more and less than 70%)
Late watergrass
  Herbicidal effect on A: late watergrass (grade 0-5): 3 (Herbicidal rate of 40% or more and less than 70%)
Lambsquarters [9]; [27]
  herbicidal effect on O: lambsquarters (criteria 0-5): 4 (Herbicidal rate of 70% or more and less than 90%)
Windgrass [10]; [26]
  L: windgrass, herbicidal effect rating: 0 (Herbicidal rate of 5% or less (almost no effect))
Italian ryegrass [11]; [26]
  K: Italian ryegrass, herbicidal effect rating: 0 (Herbicidal rate of 5% or less (almost no effect))
Southern crabgrass [12]; [26]
  F: southern crabgrass, herbicidal effect rating: 0 (Herbicidal rate of 5% or less (almost no effect))
Green foxtail [13]; [26]
  G: green foxtail, herbicidal effect rating: 4 (Herbicidal rate of 70% or more and less than 90%)
Japanese bulrush
  Herbicidal effect on B: Japanese bulrush (grade 0-5): 1 (Herbicidal rate of 5% or more and less than 20%)
False cleavers [15]; [26]
  Q: false cleavers, herbicidal effect rating: 3 (Herbicidal rate of 40% or more and less than 70%)
Chickweed [16]; [26]
  P: chickweed, herbicidal effect rating: 3 (Herbicidal rate of 40% or more and less than 70%)
Southern crabgrass [17]; [27]
  herbicidal effect on F: southern crabgrass (criteria 0-5): 3 (Herbicidal rate of 40% or more and less than 70%)
Italian ryegrass [18]; [27]
  herbicidal effect on K: Italian ryegrass (criteria 0-5): 0 (Herbicidal rate of 5% or less (almost no effect))
Blackgrass [19]; [26]
  J: blackgrass, herbicidal effect rating: 0 (Herbicidal rate of 5% or less (almost no effect))
Wild oat [20]; [27]
  herbicidal effect on I: wild oat (criteria 0-5): 1 (Herbicidal rate of 5% or more and less than 20%)
False cleavers [21]; [27]
  herbicidal effect on Q: false cleavers (criteria 0-5): 3 (Herbicidal rate of 40% or more and less than 70%)
Barnyard grass [22]; [26]
  H: barnyard grass, herbicidal effect rating: 0 (Herbicidal rate of 5% or less (almost no effect))
Green foxtail [23]; [27]
  herbicidal effect on G: green foxtail (criteria 0-5): 5 (Herbicidal rate of 90% or more (almost completely withered))
Velvetleaf [24]; [26]
  M: velvetleaf, herbicidal effect rating: 0 (Herbicidal rate of 5% or less (almost no effect))
